Reference: patent US20020111314A1, “Novel stimulation of gene expression and protein synthesis of heat shock protein 72/73 (Hsp 70)” (The Trustees of Columbia University, priority 1995, published 2002)

Legend:
Hsp70 = Hsp70 induction in HepG2 cells ([3H]-leucine labeling, denaturing immunoprecipitation); assay type: cell-based, human; conditions: HepG2; 4 hours; MG132 10 μM or 30 μM, lactacystin 10 μM; 30 min labeling
Experimental: HepG2 cells were grown up to 95% confluence and then preincubated for 4 hours in a 37° C. incubator with serum-free minimum essential medium (MEM), followed by radiolabeling with 3H-leucine (150 μCi/ml) dissolved in serum-free, leucine-free medium. Preincubation and labeling medium each contained 1.5% bovine serum albumin (BSA) plus different concentrations of ALLN as indicated. After labeling, cells were collected and lysed, and Hsp70 was immunoprecipitated under denaturing conditions as described under Experimental Details. Cell lysates containing an equal amount of TCA-insoluble radioactivity were used for immunoprecipitation. (A): The immunoprecipitates were analyzed by sodium dodecyl sulfate-polyacryamide gel electrophoresis (SDS-PAGE) and fluorography. Numbers on the left-hand side denote molecular markers. (B): The Hsp70 radioactivity was quantitated by scintillation counting and plotted. All the values were presented as means±SD from three individual culture dishes.
(§1) FIGS. 3A-3B: Effects of the other protease inhibitors on Hsp70 biosynthesis in HepG2 cells. HepG2 cells were preincubated in serum-free MEM containing either 1.5% BSA alone (Control), or BSA plus 40 μg/ml of ALLN, 40 μg/ml of ALLM, 50 μg/ml of leupeptin, 50 μg/ml of pepstatin A, 25 μg/ml of E-64d, 1 mM of phenylmethylsulfonyl fluoride (PMSF), 100 KIU/ml of apotinin, 1 mM of Benzamidine (Benz), 200 μM of calpain inhibitor peptide (CIP). Radiolabeling (in the presence of protease inhibitors), lysis and immunoprecipitation were performed as described in FIG. 1. The Hsp70 specific radioactivity (A) and the amount of total incorporated radioactivity (TCA-cpm) (B) were compared with each other. All the values were presented as the mean±SD from three individual culture dishes.
FIGS. 9A-9B: Effects of proteasome inhibitors on Hsp70 induction. HepG2 cells were preincubated with the proteasome inhibitors MG132 at a final concentration of either 10 μM or 30 μM (A), or lactacystin at 10 μM (B) for 4 hours under conditions described in FIG. 3. These cells were then subjected to radiolabeling (30 min), cell lysis, and immunoprecipitation with anti-Hsp70 antibody. The experiments with MG132 (A) were repeated twice; the effects of lactacystin (B) were studied in triplicate culture dishes.
ALLN, leupeptin, mouse anti-human Hsp72/73 monoclonal antibody, a secondary antibody conjugated with horseradish peroxidase (HRP) (goat anti-rabbit immunoglubin G [IgG]), and rabbit anti-rat IgG antibody were from Boehringer Mannheim Co. Anti-Human Hsp25 and anti-human Hsp60 monoclonal antibodies, ALLM, Calpain inhibitor peptide (CIP), dimethyl sulfoxide (DMSO) and dithiothreitol (DTT) were from Sigma. Human Hsp70 oligonucleotide probe was from Oncogene Science. This oligonucleotide was ^32P labeled at the 5′-end by T4 Kinase, which was from Biolabs. ^32P was from ICN Pharmaceutical Inc. L-[4,5-^3H] leucine was from Amersham Co. Anti-human Bip (immunoglobulin heavy chain binding protein, also called Grp78), anti-human Hsp27, anti-human Hsp60, and anti-human Hsp90 monoclonal antibodies were from Stress Genes. Anti-human Hsp86 and Hsp104 antibodies were from Affinity Bioreagent Inc. Nitrocellular transfer and immobilization membranes were from Schleicher & Schuell, Keene, N.H. RNA extraction kits were from Biotect, Tex. The polyclonal antibody against the human HSF1 protein was a generous gift from Dr. Carl Wu of the National Institute of Health (Rabindran, et al., 1993). Ethylene glycol bis(succunimidylsuccinate) (EGS) was from Pierce. Cbz-leucyl-leucyl-leucinal (MG132) was a gift of Dr. H. Ploegh at the Massachusetts Institute of Technology. All the other tissue culture supplies and chemicals were obtained from supplies as previously described (Dixon, et al., 1991). The HepG2 cell culture conditions were maintained as previously described (Dixon, et al., 1991).

[1] = tested on: cysteine protease, serine protease, trypsin or chymotrypsin; conditions: even upon extended exposure; Ward 1995, Fenteany 1995; cited from earlier work
HepG2 cells = test: Total incorporation of radiolabel (TCA cpm) as indicator of cell toxicity in HepG2 cells; assay type: cell-based, human; conditions: MG132 10 or 30 μM, lactacystin 10 μM, data not shown
Experimental: as §1
Preincubation and labeling media each contained either 1.5% bovine serum albumin (BSA) alone, or BSA plus ALLN (40 μg/ml except as otherwise indicated), or BSA plus other protease inhibitors at concentrations indicated in the figure legends. At the indicated times, cells were removed from the 37° C. incubator and placed on ice, washed with cold phosphate-buffer saline (PBS) twice and lysed with lysis buffer containing 1% Triton X-100 (TX100), 1% deoxycholic acid (DOC) and 0.1% SDS in PBS containing proteinase inhibitors: 2 mM phenylmethylsulfonyl fluoride (PMSF); 2 μg/ml ALLN; 2 μg/ml leupeptin; and 2 μg/ml aprotinin. After a 30 min. incubation with lysis buffer at 4° C., the lysates were centrifuged at 14,000 g in a microcentrifuge for 5 min., and the supernatants were adjusted to 1% SDS concentration and boiled for 5 min. to denature the proteins. 1% TX100 was then added to dilute the lysates to a final concentration of 0.1% SDS. Cell lysates containing equal amounts of trichloroacetic acid (TCA)-insoluble radioactivity were used for immunoprecipitations by incubating with individual monoclonal antibody (1 μg/ml) for 2.5 hours at 4° C. Protein-A Sepharose 4B was added afterwards and the lysates incubated for another 1.5 hours at 4° C. to collect the immunocomplexes. […]

## CC(=O)N[C@@H](CSC(=O)[C@]1([C@@H](O)C(C)C)NC(=O)[C@H](C)[C@@H]1O)C(=O)O [lactacystin]
Hsp70
  induction of Hsp70 levels by proteasome inhibitors (FIG. 9): induced Hsp70 levels dramatically
[1]
  effect on cysteine protease, serine protease, trypsin or chymotrypsin: no detectable effect
HepG2 cells
  toxicity to the cells (TCA-precipitable radioactivities): without obvious toxicity
